Assay results published in US10780090B2, “Heteroaryl compounds useful as inhibitors of SUMO activating enzyme” (Millennium Pharmaceuticals, Inc., priority 2014, dated 2020).

Target: recombinant human SAE enzyme (Homo sapiens (Human), UniProt Q9UBT2)
Assay: SAE HTRF enzyme assay
Assay type: biochemical
Details: for inhibition at 0.111 µM / Percent Inhibition: Concentration 0.111 μM; for inhibition at 0.111 µM: read-out: Percent Inhibition; for IC50: class symbols A/B/C
Summary of the method: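 Enzyme reaction: 50 mM HEPES pH 7.5, 5 mM MgCl2, 250 μM GSH, 0.05% BSA, 0.5 μM ATP, 0.01 μM Ubc9-GST, 0.125 μM Sumo-Flag, 0.11 nM SAE; 105 min, 24° C. Stop/detect, 2 h, then HTRF. % inh or IC50.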

recombinant human SAE enzyme, sequence (Q9UBT2 whole entry): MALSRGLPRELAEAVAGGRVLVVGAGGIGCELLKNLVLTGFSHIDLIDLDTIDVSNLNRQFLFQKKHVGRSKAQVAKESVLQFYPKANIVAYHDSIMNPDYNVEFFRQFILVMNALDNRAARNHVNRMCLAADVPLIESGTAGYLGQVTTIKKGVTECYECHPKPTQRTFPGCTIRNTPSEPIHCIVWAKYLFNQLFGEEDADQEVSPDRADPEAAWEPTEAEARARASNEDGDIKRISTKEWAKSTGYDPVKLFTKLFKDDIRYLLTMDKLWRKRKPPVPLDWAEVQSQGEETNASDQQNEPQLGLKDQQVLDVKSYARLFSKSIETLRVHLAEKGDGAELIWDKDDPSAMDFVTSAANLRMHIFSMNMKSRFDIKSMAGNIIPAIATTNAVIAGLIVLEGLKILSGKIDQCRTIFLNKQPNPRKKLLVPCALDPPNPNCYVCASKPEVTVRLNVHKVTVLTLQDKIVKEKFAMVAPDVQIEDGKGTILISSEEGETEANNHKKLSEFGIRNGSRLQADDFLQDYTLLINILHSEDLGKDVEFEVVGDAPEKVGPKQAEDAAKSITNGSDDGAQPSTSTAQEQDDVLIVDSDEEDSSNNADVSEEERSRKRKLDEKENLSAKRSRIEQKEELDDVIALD
recombinant human SAE enzyme, sequence (Q9UBE0 whole entry partner): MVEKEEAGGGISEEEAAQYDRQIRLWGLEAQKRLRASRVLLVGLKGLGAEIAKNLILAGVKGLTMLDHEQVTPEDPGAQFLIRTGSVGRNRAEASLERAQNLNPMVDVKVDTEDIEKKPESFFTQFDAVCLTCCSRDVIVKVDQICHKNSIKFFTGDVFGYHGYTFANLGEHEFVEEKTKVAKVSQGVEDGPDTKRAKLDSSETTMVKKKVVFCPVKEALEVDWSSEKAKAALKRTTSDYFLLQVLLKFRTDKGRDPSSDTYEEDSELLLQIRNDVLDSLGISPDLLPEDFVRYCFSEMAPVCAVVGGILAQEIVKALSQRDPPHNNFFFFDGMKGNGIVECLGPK

SMILES	inhibition at 0.111 µM	IC50	Percent Inhibition
NS(=O)(=O)OC[C@H]1C[C@@H](Nc2ncncc2C(=O)c2cc(CC3CCCCC3)cs2)C[C@@H]1O [I-199, {(1R,2S,4R)-4-[(5-{[4-(Cyclohexylmethyl)-2-thienyl]carbonyl}pyrimidin-4-yl)amino]-2-hydroxycyclopentyl}methyl sulfamate]	63%	10 to 100 nM	–
NS(=O)(=O)OC[C@H]1C[C@@H](Nc2ncncc2C(=O)c2cc(S(=O)(=O)c3ccccc3)cs2)C[C@@H]1O [I-200, {(1R,2S,4R)-2-Hydroxy-4-[(5-[4-(phenylsulfonyl)-2-thienyl]carbonyl}pyrimidin-4-yl)amino]cyclopentyl}methyl sulfamate]	–	10 to 100 nM	62
CC(C)Oc1ccccc1OCc1csc(C(=O)c2cncnc2N[C@@H]2C[C@H](COS(N)(=O)=O)[C@@H](O)C2)c1 [I-201, [(1R,2S,4R)-2-hydroxy-4-{[5-({4-[(2-isopropoxyphenoxy)methyl]-2-thienyl}carbonyl)pyrimidin-4-yl]amino}cyclopentyl]methyl sulfamate]	60%	10 to 100 nM	–
CC(C)(O)c1ccc(C(=O)c2cncnc2N[C@@H]2C[C@H](COS(N)(=O)=O)[C@@H](O)[C@H]2O)s1 [I-202, {(1R,2R,3S,4R)-2,3-dihydroxy-4-[(5-{[5-(2-hydroxypropan-2-yl)-2-thienyl]carbonyl}pyrimidin-4-yl)amino]cyclopentyl}methyl sulfamate]	60%	10 to 100 nM	–
NS(=O)(=O)OC[C@H]1C[C@@H](Nc2ncncc2C(=O)c2cc(S(=O)(=O)c3cccc(Cl)c3)c(Cl)s2)C[C@@H]1O [I-203, [(1R,2S,4R)-4-{[5-({5-chloro-4-[(3-chlorophenyl)sulfonyl]-2-thienyl}carbonyl)pyrimidin-4-yl]amino}-2-hydroxycyclopentyl]methyl sulfamate]	58%	10 to 100 nM	–
NS(=O)(=O)OC[C@H]1C[C@@H](Nc2ncncc2C(=O)c2cc(CN3CC=CCC3)cs2)C[C@@H]1O [I-204, {(1R,2S,4R)-4-[(5-{[4-(3,6-dihydropyridin-1(2H)-ylmethyl)-2-thienyl]carbonyl}pyrimidin-4-yl)amino]-2-hydroxycyclopentyl}methyl sulfamate]	52%	10 to 100 nM	–
NS(=O)(=O)OC[C@H]1C[C@@H](Nc2ncncc2C(=O)c2ccc(Cc3cccc(Cl)c3)s2)[C@@H](F)[C@@H]1O [I-205, {(1R,2R,3R,4R)-4-[(5-{[5-(3-Chlorobenzyl)-2-thienyl]carbonyl}pyrimidin-4-yl)amino]-3-fluoro-2-hydroxycyclopentyl}methyl sulfamate]	51%	100 to 1000 nM	–
NS(=O)(=O)OC[C@H]1C[C@@H](Nc2ncncc2C(=O)c2ccc(CO)o2)C[C@@H]1O [I-206, [(1R,2S,4R)-2-hydroxy-4-({5-[5-(hydroxymethyl)-2-furoyl]pyrimidin-4-yl}amino)cyclopentyl]methyl sulfamate]	49%	100 to 1000 nM	–
NS(=O)(=O)OC[C@H]1C[C@@H](Nc2ncncc2C(=O)c2cc(C(=O)c3cccc(Cl)c3)c(Cl)s2)C[C@@H]1O [I-207, {(1R,2S,4R)-4-[(5-{[5-Chloro-4-(3-chlorobenzoyl)-2-thienyl]carbonyl}pyrimidin-4-yl)amino]-2-hydroxycyclopentyl}methyl sulfamate]	51%	100 to 1000 nM	–
NS(=O)(=O)OC[C@H]1C[C@@H](Nc2ncncc2C(=O)c2cc(C(=O)c3ccccc3)co2)C[C@@H]1O [I-208, [(1R,2S,4R)-4-{[5-(4-benzoyl-2-furoyl)pyrimidin-4-yl]amino}-2-hydroxycyclopentyl]methyl sulfamate]	46%	100 to 1000 nM	–
NS(=O)(=O)OC[C@H]1C[C@@H](Nc2ncncc2C(=O)c2cc(Cc3cncc(Cl)c3)cs2)C[C@@H]1O [I-210, [(1R,2S,4R)-4-{[5-({4-[(5-chloropyridin-3-yl)methyl]-2-thienyl}carbonyl)pyrimidin-4-yl]amino}-2-hydroxycyclopentyl]methyl sulfamate]	50%	100 to 1000 nM	–
NS(=O)(=O)OC[C@H]1C[C@@H](Nc2ncncc2C(=O)c2cc(CO)c(Cl)s2)C[C@@H]1O [I-211, {(1R,2S,4R)-4-[(5-{[5-Chloro-4-(hydroxymethyl)-2-thienyl]carbonyl}pyrimidin-4-yl)amino]-2-hydroxycyclopentyl}methyl sulfamate]	39%	100 to 1000 nM	–
COCc1ccc(C(=O)c2cncnc2N[C@@H]2C[C@H](COS(N)(=O)=O)[C@@H](O)C2)o1 [I-212, [(1R,2S,4R)-2-hydroxy-4-({5-[5-(methoxymethyl)-2-furoyl]pyrimidin-4-yl}amino)cyclopentyl]methyl sulfamate]	43%	100 to 1000 nM	–
NS(=O)(=O)OC[C@H]1C[C@@H](Nc2ncncc2C(=O)c2cc(C(=O)c3ccccc3)c(Cl)s2)C[C@@H]1O [I-215, [(1R,2S,4R)-4-({5-(4-Benzoyl-5-chlor-2-thienyl)carbonyl]pyrimidin-4-yl}amino)-2-hydroxycyclopentyl]methyl sulfamate]	–	100 to 1000 nM	36
NS(=O)(=O)OC[C@H]1C[C@@H](Nc2ncncc2C(=O)c2cc(CO)co2)C[C@@H]1O [I-216, [(1R,2S,4R)-2-Hydroxy-4-{(5-[4-(hydroxymethyl)-2-furoyl]pyrimidin-4-yl}amino)cyclopentyl]methyl sulfamate]	36%	100 to 1000 nM	–
COCc1csc(C(=O)c2cncnc2N[C@@H]2C[C@H](COS(N)(=O)=O)[C@@H](O)C2)c1 [I-217, {(1R,2S,4R)-2-Hydroxy-4-[(5-{[4-(methoxymethyl)-2-thienyl]carbonyl}pyrimidin-4-yl)amino]cyclopentyl}methyl sulfamate]	36%	100 to 1000 nM	–
COCc1cc(C(=O)c2cncnc2N[C@@H]2C[C@H](COS(N)(=O)=O)[C@@H](O)C2)sc1Cl [I-218, {(1R,2S,4R)-4-[(5-{[5-Chloro-4-(methoxymethyl)-2-thienyl]carbonyl}pyrimidin-4-yl)amino]-2-hydroxycyclopentyl}methyl sulfamate]	33%	100 to 1000 nM	–
NS(=O)(=O)OC[C@H]1C[C@@H](Nc2ncncc2C(=O)c2cc(CN3CC=CC3)cs2)C[C@@H]1O [I-219, {(1R,2S,4R)-4-[(5-{[4-(2,5-dihydro-1H-pyrrol-1-ylmethyl)-2-thienyl]carbonyl}pyrimidin-4-yl)amino]-2-hydroxycyclopentyl}methyl sulfamate]	32%	100 to 1000 nM	–
CN(C)Cc1cn(Cc2csc(C(=O)c3cncnc3N[C@@H]3C[C@H](COS(N)(=O)=O)[C@@H](O)C3)c2)c2ccccc12 [I-221, {(1R,2S,4R)-4-[(5-{[4-({3-[(dimethylamino)methyl]-1H-indol-1-yl}methyl)-2-thienyl]carbonyl}pyrimidin-4-yl)amino]-2-hydroxycyclopentyl}methyl sulfamate]	30%	100 to 1000 nM	–
NS(=O)(=O)OC[C@H]1C[C@@H](Nc2ncncc2C(=O)c2cc(CNCc3ccccc3)cs2)C[C@@H]1O [I-222, [(1R,2S,4R)-4-{[5-({4-(Benzylamino)methyl]-2-thienyl)carbonyl)pyrimidin-4-yl]amino}-2-hydroxycyclopentyl]methyl sulfamate]	–	100 to 1000 nM	31
COCc1coc(C(=O)c2cncnc2N[C@@H]2C[C@H](COS(N)(=O)=O)[C@@H](O)C2)c1 [I-223, [(1R,2S,4R)-2-Hydroxy-4-({5-[4-(methoxymethyl)-2-furoyl]pyrimidin-4-yl}amino)cyclopentyl]methyl sulfamate]	28%	100 to 1000 nM	–
NS(=O)(=O)OC[C@H]1C[C@@H](Nc2ncncc2C(=O)c2cc(CN3CCCC(F)(F)C3)cs2)C[C@@H]1O [I-224, [(1R,2S,4R)-4-{[5-({4-[(3,3-difluoropiperidin-1-yl)methyl]-2-thienyl}carbonyl)pyrimidin-4-yl]amino}-2-hydroxycyclopentyl]methyl sulfamate]	31%	100 to 1000 nM	–
NS(=O)(=O)OC[C@H]1C[C@@H](Nc2ncncc2C(=O)c2cc(CN3CCC(F)(F)C3)cs2)C[C@@H]1O [I-228, [(1R,2S,4R)-4-{[5-({4-[(3,3-Difluoropyrrolidin-1-yl)methyl]-2-thienyl}carbonyl)pyrimidin-4-yl]amino}-2-hydroxycyclopentyl]methyl sulfamate]	29%	100 to 1000 nM	–
CC(=O)c1csc(C(=O)c2cncnc2N[C@@H]2C[C@H](COS(N)(=O)=O)[C@@H](O)C2)c1 [I-229, [(1R,2S,4R)-4-{(5-[(4-Acetyl-2-thienyl)carbonyl]pyrimidin-4-yl}amino)-2-hydroxycyclopentyl]methyl sulfamate]	25%	100 to 1000 nM	–
NS(=O)(=O)OC[C@H]1C[C@@H](Nc2ncncc2C(=O)c2cc(CO)cs2)C[C@@H]1O [I-230, {(1R,2S,4R)-2-hydroxy-4-[(5-{[4-(hydroxymethyl)-2-thienyl]carbonyl}pyrimidin-4-yl)amino]cyclopentyl}methyl sulfamate]	26%	100 to 1000 nM	–
NS(=O)(=O)OC[C@H]1C[C@@H](Nc2ncncc2C(=O)c2cc(Cn3ccnc3)cs2)C[C@@H]1O [I-231, {(1R,2S,4R)-2-hydroxy-4-[(5-{[4-(1H-imidazol-1-ylmethyl)-2-thienyl]carbonyl}pyrimidin-4-yl)amino]cyclopentyl}methyl sulfamate]	28%	100 to 1000 nM	–
Cc1cc(Cc2cccc(Cl)c2)sc1C(=O)c1cncnc1N[C@@H]1C[C@H](COS(N)(=O)=O)[C@@H](O)C1 [I-233, {(1R,2S,4R)-4-[(5-{[5-(3-Chlorobenzyl)-3-methyl-2-thienyl]carbonyl}pyrimidin-4-yl)amino]-2-hydroxycyclopentyl}methyl sulfamate]	22%	100 to 1000 nM	–
